Source: PubChem BioAssay (NCI)
“And” between values parts separate entries of the source, which are not always exact repeats. Equal values may be shown once.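 Step 1: Grow cells in 96-well plates. Step 2: Expose to compound for 48 hours at 5 concentrations. Step 3: Interpolate endpoints linearly; if unreached, use highest concentration. Abbreviation: GI50, concentration required for 50% inhibition of growth. Definition used: TGI = concentration required for complete inhibition of growth.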

Key:
Experiment in all cases: growth of human tumour cells (NCI), 48 h; in the data active means GI50 below about 0.43 µM; inactive means the rest
786-0 renal = system: 786-0 renal
A498 renal = system: A498 renal
A549 NSCLC = system: A549 NSCLC
ACHN renal = system: ACHN renal
BT-549 breast = system: BT-549 breast
CCRF-CEM leukemia = system: CCRF-CEM leukemia
COLO 205 colon = system: COLO 205 colon
DU-145 prostate = system: DU-145 prostate
EKVX NSCLC = system: EKVX NSCLC
HCC-2998 colon = system: HCC-2998 colon
HCT-116 colon = system: HCT-116 colon
HCT-15 colon = system: HCT-15 colon
HL-60(TB) leukemia = system: HL-60(TB) leukemia
HOP-62 NSCLC = system: HOP-62 NSCLC
HOP-92 NSCLC = system: HOP-92 NSCLC
HS 578T breast = system: HS 578T breast
HT29 colon = system: HT29 colon
IGROV1 ovarian = system: IGROV1 ovarian
K-562 leukemia = system: K-562 leukemia
KM12 colon = system: KM12 colon
LOX IMVI melanoma = system: LOX IMVI melanoma
M14 melanoma = system: M14 melanoma
MCF7 breast = system: MCF7 breast
MDA-MB-231 breast = system: MDA-MB-231 breast
MDA-MB-435 = system: MDA-MB-435
MOLT-4 leukemia = system: MOLT-4 leukemia
NCI-H226 lung = system: NCI-H226 lung
NCI-H23 lung = system: NCI-H23 lung
NCI-H460 lung = system: NCI-H460 lung
NCI-H522 lung = system: NCI-H522 lung
NCI/ADR-RES ovarian = system: NCI/ADR-RES ovarian
OVCAR-3 ovarian = system: OVCAR-3 ovarian
OVCAR-4 ovarian = system: OVCAR-4 ovarian
OVCAR-5 ovarian = system: OVCAR-5 ovarian
OVCAR-8 ovarian = system: OVCAR-8 ovarian
PC-3 prostate = system: PC-3 prostate
RPMI-8226 leukemia = system: RPMI-8226 leukemia
RXF 393 renal = system: RXF 393 renal
SF-268 CNS = system: SF-268 CNS
SF-295 CNS = system: SF-295 CNS
SF-539 CNS = system: SF-539 CNS
SK-MEL-2 melanoma = system: SK-MEL-2 melanoma
SK-MEL-28 melanoma = system: SK-MEL-28 melanoma
SK-MEL-5 melanoma = system: SK-MEL-5 melanoma
SK-OV-3 ovarian = system: SK-OV-3 ovarian
SN12C renal = system: SN12C renal
SNB-19 CNS = system: SNB-19 CNS
SNB-75 CNS = system: SNB-75 CNS
SR leukemia = system: SR leukemia
SW-620 colon = system: SW-620 colon
TK-10 renal = system: TK-10 renal
U251 CNS = system: U251 CNS
UACC-257 melanoma = system: UACC-257 melanoma
UACC-62 melanoma = system: UACC-62 melanoma
UO-31 renal = system: UO-31 renal

COC(=O)C1CCC(NC(=O)c2csc([C@@H](C[C@H](C(C)C)N(C)C(=O)[C@@H](NC(=O)[C@H]3CCCCN3C)C(C)C)OC(C)=O)n2)CC1 (some centres not stated)
5.9 nM and 10.7 nM: TGI (NCI-H522 lung)
29.4 nM: TGI (OVCAR-3 ovarian)
6.73 µM: TGI (HOP-92 NSCLC)
14.1 nM and 78.4 nM: TGI (COLO 205 colon)
791 nM and 225 nM: TGI (BT-549 breast)
127 nM: TGI (A498 renal)
inactive: GI50 (SK-MEL-28 melanoma) > 33.3 µM | GI50 (TK-10 renal) 1050 nM | GI50 (UACC-257 melanoma) > 33.3 µM
active: GI50 (786-0 renal) 7.42 nM and 14 nM | GI50 (A498 renal) 6.8 nM and 12.6 nM | GI50 (A549 NSCLC) 8.59 nM and 21 nM | GI50 (ACHN renal) 279 nM | GI50 (BT-549 breast) 9.9 nM and 20 nM | GI50 (CCRF-CEM leukemia) 4.07 nM and 10.7 nM | GI50 (COLO 205 colon) 3.59 nM and 12.1 nM | GI50 (DU-145 prostate) 4.06 nM and 9.67 nM | GI50 (EKVX NSCLC) 15.2 nM and 38.5 nM | GI50 (HCC-2998 colon) 32.5 nM and 99.4 nM | GI50 (HCT-116 colon) 4.01 nM | GI50 (HCT-15 colon) 18.5 nM and 53.6 nM | GI50 (HL-60(TB) leukemia) 3 nM and 7.35 nM | GI50 (HOP-62 NSCLC) 5.19 nM and 16 nM | GI50 (HOP-92 NSCLC) 15.3 nM | GI50 (HS 578T breast) 4.29 nM and 11.1 nM | GI50 (HT29 colon) 3.43 nM and 10.4 nM | GI50 (IGROV1 ovarian) 11.5 nM and 30.5 nM | GI50 (K-562 leukemia) 2.56 nM and 7.66 nM | GI50 (KM12 colon) 4.98 nM and 14 nM | GI50 (LOX IMVI melanoma) 6.44 nM and 16.4 nM | GI50 (M14 melanoma) 5.7 nM and 5.52 nM | GI50 (MCF7 breast) 3.09 nM and 12.1 nM | GI50 (MDA-MB-231 breast) 8.63 nM and 24 nM | GI50 (MDA-MB-435) 0.404 nM and 3.33 nM | GI50 (MOLT-4 leukemia) 5.74 nM and 14.9 nM | GI50 (NCI-H226 lung) 12.6 nM and 31.7 nM | GI50 (NCI-H23 lung) 34.3 nM and 21.7 nM | GI50 (NCI-H460 lung) 3.72 nM and 12 nM | GI50 (NCI-H522 lung) 1.38 nM and 3.33 nM | GI50 (NCI/ADR-RES ovarian) 106 nM and 258 nM | GI50 (OVCAR-3 ovarian) 3.59 nM and 9.35 nM | GI50 (OVCAR-5 ovarian) 11.2 nM and 21.2 nM | GI50 (OVCAR-8 ovarian) 11.4 nM and 26.6 nM | GI50 (PC-3 prostate) 8.4 nM and 16.8 nM | GI50 (RPMI-8226 leukemia) 4.98 nM and 14.9 nM | GI50 (RXF 393 renal) 9.23 nM | GI50 (SF-268 CNS) 9.2 nM and 19.7 nM | GI50 (SF-295 CNS) 4.23 nM and 14.6 nM | GI50 (SF-539 CNS) 3.94 nM and 12.7 nM | GI50 (SK-MEL-2 melanoma) 7.62 nM and 10.9 nM | GI50 (SK-MEL-5 melanoma) 3.26 nM and 10.8 nM | GI50 (SK-OV-3 ovarian) 4.5 nM and 14.8 nM | GI50 (SN12C renal) 6.74 nM and 22.5 nM | GI50 (SNB-19 CNS) 4.7 nM and 15.2 nM | GI50 (SNB-75 CNS) 3.07 nM and 11.9 nM | GI50 (SR leukemia) 2.12 nM and 3.33 nM | GI50 (SW-620 colon) 4.53 nM and 14.9 nM | GI50 (U251 CNS) 4.99 nM and 15.4 nM | GI50 (UACC-62 melanoma) 3.82 nM and 15.7 nM | GI50 (UO-31 renal) 68.4 nM and 303 nM
28.9 nM: TGI (DU-145 prostate)
16.3 nM: TGI (M14 melanoma)
118 nM and 348 nM: TGI (SK-MEL-5 melanoma)
> 33.3 µM: TGI (786-0 renal) | TGI (A549 NSCLC) | TGI (ACHN renal) | TGI (CCRF-CEM leukemia) | TGI (EKVX NSCLC) | TGI (HCC-2998 colon) | TGI (HCT-15 colon) | TGI (HOP-62 NSCLC) | TGI (HS 578T breast) | TGI (IGROV1 ovarian) | TGI (K-562 leukemia) | TGI (KM12 colon) | TGI (LOX IMVI melanoma) | TGI (MCF7 breast) | TGI (MOLT-4 leukemia) | TGI (NCI-H226 lung) | TGI (NCI-H23 lung) | TGI (NCI-H460 lung) | TGI (NCI/ADR-RES ovarian) | TGI (OVCAR-4 ovarian) | TGI (OVCAR-5 ovarian) | TGI (OVCAR-8 ovarian) | TGI (PC-3 prostate) | TGI (RPMI-8226 leukemia) | TGI (RXF 393 renal) | TGI (SF-268 CNS) | TGI (SF-295 CNS) | TGI (SK-MEL-2 melanoma) | TGI (SK-MEL-28 melanoma) | TGI (SK-OV-3 ovarian) | TGI (SN12C renal) | TGI (SNB-19 CNS) | TGI (SNB-75 CNS) | TGI (SR leukemia) | TGI (SW-620 colon) | TGI (TK-10 renal) | TGI (U251 CNS) | TGI (UACC-257 melanoma) | TGI (UACC-62 melanoma) | TGI (UO-31 renal)
63.7 nM and 151 nM: TGI (SF-539 CNS)
13.6 nM and 18.1 nM: TGI (HL-60(TB) leukemia)
2.65 nM and 8.57 nM: TGI (MDA-MB-435)
4.2 µM: TGI (HT29 colon)
